# Measured values: patent US20030050236A1, “Compounds that enhance tumor death” (The University of Chicago, priority 2000, published 2003)
# Where a SMILES comes first, the peptide text is derived from it. [ ]: non-standard residue; d: D form. The star is where a group is joined. Palmitoyl = CCCCCCCCCCCCCCCC(=O)*; Dap = NC[C@H](N)C(=O)O
# Experiments:
# [1] = system: Akt; assay: Akt phosphorylation immunoblot; type: cell-based, human; details: insulin 5 min; LY294002 pretreatment; vector-transfected cells
# Description: Cells were harvested in a lysis buffer containing 10 mM Tris (pH 7.4), 1 mM EGTA, 1 mM EDTA, 1 mM DTT, 25 mM NaF, 2 mM MgCl2 and 10 μg/ml aprotinin, leupeptin and pepstatin. For subcellular fractionation, the postnuclear cell extract was centrifuged at 100,000× g for 45 min to obtain a cytosolic fraction and the pellet was washed and resuspended in a lysis buffer to obtain a membrane fraction. Whole cell lysate (for caspase-3 and pFLAG-PPT1) or fractionated proteins (for p21Ras and GAP-43) were resolved by 10%, 12% or 15% of SDS-PAGE for GAP-43, caspase-3 and pFLAG-PPT1, or Ras, respectively. For immunoblotting with anti-Akt antibodies, cells were lysed in RIPA buffer consisting of 50 mM Tris (pH 7.4), 150 MM NaCl, 1 mM EGTA, 1% Nonidet P-40, 0.25% sodium deoxycholate, 1 mM NaF and protease inhibitors. […] Resolved proteins were transferred to membrane overnight, blots incubated with a blocking solution for 1 h, incubated with appropriate primary and secondary antibodies and the signals detected by ECL.
# To further investigate the downstream pathway by which PPT1 exerts protection against apoptosis, the activation of Akt was examined in control and PPT1 overexpressing cells. […] Therefore, the activation of Akt was analyzed by immunoblotting the cell extracts with an antibody specific to phosphorylated Akt (Ser473). […]
# [2] = system: non-dividing cells
# [3] = system: COS cells and embryonic neuron primary cultures
# [4] = biological target: T1, PPT1 (Homo sapiens, UniProt P50897); assay: In vitro PPT1 activity assay, [14C]palmitoyl peptide substrates, cell extract; details: read-out: inhibition in an in vitro assay (PPT)
# T1 sequence (P50897 28-306): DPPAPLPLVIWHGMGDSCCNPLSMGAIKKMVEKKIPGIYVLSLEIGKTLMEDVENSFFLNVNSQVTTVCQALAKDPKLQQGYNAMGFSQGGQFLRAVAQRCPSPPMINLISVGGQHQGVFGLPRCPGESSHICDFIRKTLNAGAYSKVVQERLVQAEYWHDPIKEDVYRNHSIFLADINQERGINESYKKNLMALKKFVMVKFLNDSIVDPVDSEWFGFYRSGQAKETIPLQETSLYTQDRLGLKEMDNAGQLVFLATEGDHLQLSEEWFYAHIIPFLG
# Description: Incubations were performed for 20 min at 37° C. and reactions terminated by addition of 1 ml of chloroform/methanol/2N HCl (2:1:0.06, v/v). After the centrifugation, organic phase was analyzed by HPTLC using n-butanol/pyridine/acetic acid/water (45:30:9:36, v/v) and [14C] palmitate release was quantified.
# The peptide sequence, AcGCVKIKK (a palmitoylation site in K-Ras), was modified by substituting the SH group of cysteine with NH2 to generate diamino propionic acid, which was then acylated with palmitate (AcG-palmitoyl diamino propionate-VKIKK). […] In another set of experiments, the unmodified peptide itself (AcGCVKIKK) was used as a control to exclude the possibility of a nonspecific effect of the sequence on PPT activity.
# In brief, the cell sonicate was incubated in the assay mixture containing 50 mM sodium citrate (pH 4.0) and IRY([^4C]palmitoylated)CWLRR octapeptide (2,000-4,000 cpm) for 20 min at 37° C. For the pH profile of PPT1 activity, 50 mM sodium citrate (pH 5 or 6) or 50 mM Tris-HCl (pH 7.4) was used with other conditions remaining the same. After addition of 1 ml of chloroform/methanol/2N HCl (2:1:0.06, by volume) and centrifugation, the organic phase was dried, reconstituted sample analyzed by HPTLC using n-butanol/pyridine/acetic acid/water (45:30:9:36, by volume) and the radioactive spot corresponding to [^14C] palmitate was counted.
# PPT1 activity was measured as described above. In brief, the cell sonicate was incubated in the assay mixture (50 mM sodium citrate (pH 4.0) for [^14C]palmitoylated [sequence] Po peptide substrate (3,000-4,000 cpm) or 50 mM Tris (pH 7.4) for [^14C]palmitoylated MLCCMRR GAP43 peptide substrate) for 20 min at 37° C. After organic extraction, samples were analyzed by HPTLC using n-butanol/pyridine/acetic acid/water (45:30:9:36, by volume) and the radioactive spot corresponding to [^14C] palmitate was counted.
# [5] = system: LA-N-5 cells; assay: DNA fragmentation assay (Hoechst 33285); type: cell-based, human; details: LY-294002 30 μM, C2 ceramide 25 μM
# Description: Quantification of DNA fragments was performed as described previously (Dawson et al., 1997). Briefly, cells were lysed in 5 mM Tris (pH 8.0) with 0.1% Triton X-100 and 20 mM EDTA and centrifuged at 20,000× g for 40 min at 4° C. For determination of DNA fragments lost in culture media, an aliquot of media was adjusted to a final concentration of 25 mM EDTA and centrifuged as described above. […] Fluorescence was detected by luminescent spectrometer using excitation 365 nm and emission 460 mn. DNA values were calculated using a standard curve obtained from the measurement of calf thymus DNA fluorescence.
# [6] = system: Ras; assay: Ras activation: guanine nucleotide binding and membrane association; type: cell-based, human; details: C2 ceramide 30 μM
# Description: Cells were harvested in a lysis buffer containing 10 mM Tris (pH 7.4), 1 mM EGTA, 1 mM EDTA, 1 mM DTT, 25 mM NaF, 2 mM MgCl2 and 10 μg/ml aprotinin, leupeptin and pepstatin. For subcellular fractionation, the postnuclear cell extract was centrifuged at 100,000× g for 45 min to obtain a cytosolic fraction and the pellet was washed and resuspended in a lysis buffer to obtain a membrane fraction. Whole cell lysate (for caspase-3 and pFLAG-PPT1) or fractionated proteins (for p21Ras and GAP-43) were resolved by 10%, 12% or 15% of SDS-PAGE for GAP-43, caspase-3 and pFLAG-PPT1, or Ras, respectively. For immunoblotting with anti-Akt antibodies, cells were lysed in RIPA buffer consisting of 50 mM Tris (pH 7.4), 150 MM NaCl, 1 mM EGTA, 1% Nonidet P-40, 0.25% sodium deoxycholate, 1 mM NaF and protease inhibitors. After lysis on ice for 1 h, cell debris was removed by centrifugation at 3,000 rpm for 5 min and an equal amount of postnuclear cell extract loaded on 8.5% SDS-PAGE. Resolved proteins were transferred to membrane overnight, blots incubated with a blocking solution for 1 h, incubated with appropriate primary and secondary antibodies and the signals detected by ECL.
# Cells (10×10^6) were washed and incubated with 0.8 mCi/ml ^32Pi for 4 h in phosphate-free DMEM. […] Cell lysate was immunoprecipitated with monoclonal anti-Ras and bound nucleotides eluted with 1 mM EDTA/25 μM GDP and GTP were analyzed by TLC using 0.75 M KH2PO4 (pH 3.5). After autoradiography, the radioactive spots corresponding to GDP and GTP were counted.
# p21^Ras is a key regulator in the signaling pathways involved in variety of events such as cell proliferation, transcription and apoptosis. […] Therefore, the subcellular localization of Ras protein was analyzed after C2-ceramide treatment. Cells were treated with C2 ceramide (30 μM), harvested at 10 min and 60 min and the membrane fraction (100,000× g pellet) analyzed by immunoblotting.
# [7] = system: caspase 3; assay: Caspase 3-like activity (DEVD-AFC) in LA-N-5 cells; type: cell-based, human; details: LY-294002 30 μM, C2 ceramide 25 μM
# Description: Cells treated with drug or vehicle were harvested, washed with PBS and cell pellets lysed in 25 mM Hepes (pH 7.4), containing 2 mM dithiothreitol (DTT), 5 mM EDTA and […] digitonin. After centrifugation at 6,000 rpm for 10 min to remove cell debris and unruptured cells, an aliquot of the supernatant was added to a reaction buffer consisting of 25 mM Hepes (pH 7.4), 2 mM DTT, 5 mM EDTA, […] digitonin and 2.5 μg/ml DEVD-AFC. After 1 h incubation, the hydrolysis of substrate was quantified by fluorometry at excitation 400 mn and emission 505 nm. The blank reaction was done in the absence of cell lysate. Enzyme activity was expressed as the amount of fluorescence produced per mg protein/h.
# [8] = system: LA-N-5 human neuroblastoma cells; assay: Cell viability / cell death by MTT assay; type: cell-based
# Description: Cells were plated in 24-well culture plates containing 500 μl media. After drug treatment, 50 μl MTT (5 mg/ml in PBS) was added and incubated for 20 min at 37° C. An aliquot of 500 μl of 10% sodium dodecyl sulfate in 0.01 N HCl was added. After incubating overnight, the absorbance at 570 nm was determined by spectrophotometry. Cell viability was calculated as percent cell survival by dividing absorbance [treatment-blank] by absorbance [control-blank], where treatment is the reading for the treated cells, control is for vehicle-treated cells and blank is for MTT added to the media without cells.
# LA-N-5 human neuroblastoma cells were grown in DMEM supplemented with 10% fetal bovine serum and 1% gentamicin. […] Cell death was measured by the MTT method (Cho et al., 2000a; Cho et al., 2000b; Cho et al., 2000c).
molecule,measurement,setting,value
insulin: growth factor used as positive control for Akt activation,phosphorylation of Akt (Ser473),[1],induced significant phosphorylation of Akt
"CCCCCCCCCCCCCCCC(=O)NC[C@H](NC(=O)CNC(C)=O)C(=O)N[C@H](C(=O)N[C@@H](CCCCN)C(=O)N[C@H](C(=O)N[C@@H](CCCCN)C(=O)N[C@@H](CCCCN)C(N)=O)[C@@H](C)CC)C(C)C [DAP1, AcG-palmitoyl diamino propionate-VKIKK] (Ac-G[Dap](Palmitoyl)VKIKK-NH2)",toxicity to non-dividing cells,[2],does not appear to be toxic
same,effect on COS cells and embryonic neuron primary cultures,[3],much less effect
same,inhibition at 20 µM,[4],85%
CCCCCCCCCCCCC/C=C/[C@@H](O)[C@H](CO)NC(C)=O [C2 ceramide],DNA fragmentation,[5],increase in DNA fragmentation
same,GTP/(GDP+GTP) ratio increase over control,[6]; 10 min,33%
same,membrane-association of Ras,[6]; 10 min and 60 min,time-dependent increase in membrane-association of Ras
same,GTP/(GDP+GTP) ratio increase over control,[6]; 60 min,85%
same,activation of caspase 3,[7],time-dependent activation of caspase 3
same,death of cells (MTT),"[8]; 30 μM C2-ceramide alone, 6 h",about 10%
same,cell death (MTT assay),"[8]; LY-294002 30 μM, C2 ceramide 25 μM, 24 hrs",about 50%
